Measured values as given in ChEMBL document CHEMBL1201862, “PubChem BioAssay data set” (2004).
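Step 1: Grow cells in 96-well plates. Step 2: Expose to compound for 48 hours at 5 concentrations. Step 3: Interpolate endpoints linearly; if unreached, use highest concentration. At the GI50, growth is halved.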 Active and inactive are the calls of the source. Cut-off read from the data, not from the text of the source: active = GI50 up to about 1.1 µM and inactive = higher.

Assays:
Assay in all cases: growth of human tumour cells (NCI), 48 h
786-0 = system: 786-0
ACHN = system: ACHN
HCT-15 = system: HCT-15
HT-29 = system: HT-29
MDA-MB-231 = system: MDA-MB-231
NCI-H226 = system: NCI-H226
PC-3 = system: PC-3
SN12C = system: SN12C
SW-620 = system: SW-620
UO-31 = system: UO-31
A549 = system: A549
CCRF-CEM = system: CCRF-CEM
K562 = system: K562
OVCAR-4 = system: OVCAR-4
SNB-19 = system: SNB-19
SR = system: SR
UACC-62 = system: UACC-62
HL-60 = system: HL-60
HOP-92 = system: HOP-92

In the case of `CC(=C\c1ccccc1)/C=C(\C#N)C(N)=O`, the GI50 (786-0) is reported as > 10 µM (inactive), the GI50 (ACHN) is reported as > 10 µM (inactive) and the GI50 (HCT-15) is reported as over 10 µM. The GI50 (HT-29) was > 10 µM (inactive), the GI50 (MDA-MB-231) was > 10 µM (inactive) and the GI50 (NCI-H226) was > 10 µM (inactive). For the same compound, the GI50 (PC-3) was > 10 µM (inactive), the GI50 (SN12C) was > 10 µM (inactive) and the GI50 (SW-620) was > 10 µM (inactive). For the same compound, the GI50 (UO-31) was > 10 µM (inactive).
`Cn1nc(/C=C\C(=O)N2CC(CCl)c3c2cc(N)c2ccccc32)cc1/C=C/C(=O)N1CC(CCl)c2c1cc(N)c1ccccc21` (stereo not given) was tested, and the GI50 (786-0) was < 0.01 µM (active), the GI50 (A549) was < 0.01 µM (active) and the GI50 (ACHN) was < 0.01 µM (active). The GI50 (CCRF-CEM) was < 0.01 µM (active), the GI50 (HCT-15) was 0.0119 µM and the GI50 (K562) was < 0.01 µM (active). The GI50 (MDA-MB-231) was < 0.01 µM (active), the GI50 (NCI-H226) was < 0.01 µM (active) and the GI50 (OVCAR-4) was < 0.01 µM (active). The GI50 (PC-3) was < 0.01 µM (active), the GI50 (SN12C) was < 0.01 µM (active) and the GI50 (SNB-19) was < 0.01 µM (active). For the same compound, the GI50 (SR) was < 0.01 µM (active), the GI50 (SW-620) was < 0.01 µM (active) and the GI50 (UACC-62) was < 0.01 µM (active). For the same compound, the GI50 (UO-31) was < 0.01 µM (active).
For `O=C1OC(O)c2cc3c(cc21)OCO3` (stereo not given), the GI50 (786-0) was > 100 µM (inactive), the GI50 (A549) was > 100 µM (inactive) and the GI50 (CCRF-CEM) was > 100 µM (inactive). The GI50 (HCT-15) was over 100 µM, the GI50 (HL-60) was > 100 µM (inactive) and the GI50 (HOP-92) was > 100 µM (inactive). The GI50 (HT-29) was > 100 µM (inactive), the GI50 (K562) was > 100 µM (inactive) and the GI50 (OVCAR-4) was > 100 µM (inactive). The GI50 (SN12C) was > 100 µM (inactive), the GI50 (SNB-19) was > 100 µM (inactive) and the GI50 (SW-620) was > 100 µM (inactive). The GI50 (UACC-62) was > 100 µM (inactive) and the GI50 (UO-31) was > 100 µM (inactive).
`C=CCOC(=O)CC[C@H](NC(=O)[C@@H](CCC(F)(F)F)Cc1ccc(O)cc1)C(=O)OCC=C` was tested, and the GI50 (786-0) was 86.9 µM (inactive), the GI50 (A549) was > 100 µM (inactive) and the GI50 (ACHN) was 47.9 µM (inactive). For the same compound, the GI50 (HCT-15) was over 100 µM, the GI50 (HL-60) was 85.9 µM (inactive) and the GI50 (HOP-92) was 67.1 µM (inactive). The GI50 (HT-29) was > 100 µM (inactive), the GI50 (K562) was 41.5 µM (inactive) and the GI50 (NCI-H226) was > 100 µM (inactive). The GI50 (OVCAR-4) was 65.2 µM (inactive), the GI50 (SN12C) was 45.4 µM (inactive) and the GI50 (SNB-19) was > 100 µM (inactive). The GI50 (SR) was 32.5 µM (inactive), the GI50 (SW-620) was > 100 µM (inactive) and the GI50 (UACC-62) was 34 µM (inactive). The GI50 (UO-31) was > 100 µM (inactive).
`CC(=O)c1cccn1/C=C(\OC(=O)OC(C)(C)C)c1ccc[nH]1` was tested, and the GI50 (786-0) was > 100 µM (inactive), the GI50 (A549) was 60 µM (inactive) and the GI50 (ACHN) was > 100 µM (inactive). For the same compound, the GI50 (CCRF-CEM) was 39.8 µM (inactive), the GI50 (HCT-15) was 55.5 µM and the GI50 (HL-60) was 31 µM (inactive). The GI50 (K562) was 59.6 µM (inactive), the GI50 (MDA-MB-231) was 73.8 µM (inactive) and the GI50 (NCI-H226) was 33.2 µM (inactive). For the same compound, the GI50 (OVCAR-4) was 42 µM (inactive), the GI50 (PC-3) was 49.1 µM (inactive) and the GI50 (SN12C) was 96.8 µM (inactive). The GI50 (SNB-19) was 46.7 µM (inactive), the GI50 (SR) was 31 µM (inactive) and the GI50 (SW-620) was 83.9 µM (inactive). For the same compound, the GI50 (UACC-62) was 99.1 µM (inactive) and the GI50 (UO-31) was 36.9 µM (inactive).
`O=C(COc1ccc(OCC(=O)N2C(=O)CC(=O)N(c3ccccc3)C2=S)cc1)N1C(=O)CC(=O)N(c2ccccc2)C1=S` was tested, and the GI50 (786-0) was 56.1 µM (inactive), the GI50 (A549) was 40.4 µM (inactive) and the GI50 (ACHN) was 66.7 µM (inactive). The GI50 (HCT-15) was 88.5 µM, the GI50 (HOP-92) was 52 µM (inactive) and the GI50 (HT-29) was 61.2 µM (inactive). For the same compound, the GI50 (K562) was 52.1 µM (inactive), the GI50 (MDA-MB-231) was 46.8 µM (inactive) and the GI50 (NCI-H226) was 65.8 µM (inactive). The GI50 (OVCAR-4) was 44.4 µM (inactive), the GI50 (PC-3) was 56.9 µM (inactive) and the GI50 (SN12C) was > 100 µM (inactive). For the same compound, the GI50 (SNB-19) was 69.7 µM (inactive), the GI50 (SW-620) was 72.1 µM (inactive) and the GI50 (UACC-62) was 32.2 µM (inactive). For the same compound, the GI50 (UO-31) was 61.4 µM (inactive).
With `O=C(CN1CCOCC1)c1ccc2c(c1)oc(=O)n2CCN1CCOCC1` the GI50 (786-0) was > 100 µM (inactive), the GI50 (CCRF-CEM) was > 100 µM (inactive) and the GI50 (HL-60) was > 100 µM (inactive). The GI50 (HT-29) was > 100 µM (inactive), the GI50 (K562) was > 100 µM (inactive) and the GI50 (MDA-MB-231) was > 100 µM (inactive). For the same compound, the GI50 (NCI-H226) was > 100 µM (inactive), the GI50 (PC-3) was > 100 µM (inactive) and the GI50 (SN12C) was > 100 µM (inactive). The GI50 (SNB-19) was > 100 µM (inactive), the GI50 (SR) was > 100 µM (inactive) and the GI50 (SW-620) was > 100 µM (inactive).
`Cc1cc(=O)oc2c3c(ccc12)OC(c1ccc(Br)cc1)CC3=O` (stereo not given) was tested, and the GI50 (786-0) was 5.48 µM (inactive), the GI50 (A549) was 16.7 µM (inactive) and the GI50 (ACHN) was 11.7 µM (inactive). The GI50 (CCRF-CEM) was 2.21 µM (inactive), the GI50 (HCT-15) was 7.48 µM and the GI50 (HT-29) was 14.7 µM (inactive). For the same compound, the GI50 (K562) was 2.83 µM (inactive), the GI50 (MDA-MB-231) was 7.35 µM (inactive) and the GI50 (NCI-H226) was 18 µM (inactive). For the same compound, the GI50 (OVCAR-4) was 26.5 µM (inactive), the GI50 (PC-3) was 6.25 µM (inactive) and the GI50 (SN12C) was 5.42 µM (inactive). The GI50 (SNB-19) was 5.31 µM (inactive), the GI50 (SR) was 3.23 µM (inactive) and the GI50 (SW-620) was 4.2 µM (inactive). For the same compound, the GI50 (UACC-62) was 7.98 µM (inactive) and the GI50 (UO-31) was 10.3 µM (inactive).
For `O=c1/c(=C/c2ccc(-c3ccc(Cl)cc3Cl)o2)sc2n1[C@@H](c1ccc(Cl)cc1)C=C(c1cc(F)c(Cl)cc1Cl)N=2`, the GI50 (786-0) was 45.3 µM (inactive), the GI50 (A549) was > 100 µM (inactive) and the GI50 (ACHN) was > 100 µM (inactive). For the same compound, the GI50 (HCT-15) was 35.6 µM, the GI50 (HL-60) was < 0.01 µM (active) and the GI50 (HOP-92) was 26.1 µM (inactive). For the same compound, the GI50 (HT-29) was 39.8 µM (inactive), the GI50 (K562) was 38.8 µM (inactive) and the GI50 (MDA-MB-231) was 23.6 µM (inactive). The GI50 (NCI-H226) was 22 µM (inactive), the GI50 (OVCAR-4) was 41.9 µM (inactive) and the GI50 (PC-3) was > 100 µM (inactive). For the same compound, the GI50 (SN12C) was 76.4 µM (inactive), the GI50 (SNB-19) was 35.6 µM (inactive) and the GI50 (SW-620) was 33.6 µM (inactive). For the same compound, the GI50 (UACC-62) was 25 µM (inactive) and the GI50 (UO-31) was 41.5 µM (inactive).
